According to patent publication US7081447B2, “Organic compounds with biological activity as thrombin inhibitors and use thereof” (Novel Science International GmbH, priority 2001, dated 2006):
pKi: −log10 of the molar value.

Key:
thrombin [1] = target: T1, thrombin (Homo sapiens, UniProt P00734); details: cited from earlier work
thrombin [2] = target: T1, thrombin; test: in vitro inhibition of thrombin amidase activity (fluorogenic substrate Tos-Gly-Pro-Arg-(7-amino-4-methylcoumarin)); type: biochemical; design: with 10 μL of human thrombin solution
Procedure: (§1) The values of the inhibition constant Ki were obtained from assays, in which thrombin hydrolyzes the fluorogenic substrate Tos-Gly-Pro-Arg-(7-amino-4-methylcoumarin). The assays were performed in 30 μL of assay buffer (0.05 M Tris, 0.1 M NaCl, 0.1% PEG 8000, pH 7.6) with 10 μL of human thrombin solution (10^−5 U/μL in assay buffer) and 140 μL of a solution of the fluorogenic substrate in assay buffer at a concentration v of 30 μM. Solutions of the test compound (10 μL) were added at various concentrations. The rates of substrate hydrolysis were measured by monitoring the reactions of 7-amino-4-methylcoumarin release at 460 nm with use of AMC. The reaction reached a steady state within 3 minutes after thrombin was combined with the substrate and an inhibitor. The kinetic data of the competitive inhibition (Km, Vmax, and Ki) were analyzed with the aid of the Hanes plot (A/V vs. A at various i values).
as §1, with “concentration” for “concentration v”, “using” for “with the aid of”, “values for A; here, A is the substrate concentration and V the reaction rate).” for “i values).”
as §1, with “conducted” for “performed”, “concentration” for “concentration v”, “using” for “with the aid of”, “values for A; here, A is the substrate concentration and V the reaction rate).” for “i values).”

[3] = peptide concentration of 1 μM, 1 µM
[4] = peptide concentration of 250 nM

| Substance | Thrombin inhibition (thrombin amidase activity) (thrombin [2]; [3]) | also measured |
| --- | --- | --- |
| H-D-Phe-Pro-Arg-H | – | pKi (thrombin [1]): 7.15 |
| N-Acetyl-L-Ser-L-Ala-L-Cha-D-Pro-D-Tyr-L-Arg amide [Example 67] | 47% | – |
| N-Acetyl-L-Ser-L-Arg-L-Cha-D-Pro-D-Tyr-L-Arg amide [Example 18] | 67% | – |
| N-Acetyl-L-Ser-L-Arg-L-Cha-D-Pro-D-Tyr-L-Arg amide [Example 35] | 51% | – |
| N-Acetyl-L-Ser-L-Arg-L-Cha-D-Pro-D-Tyr-L-Arg amide [Example 50] | 51% | – |
| N-Acetyl-L-Ser-L-Arg-L-Cha-D-Pro-D-Tyr-L-Arg amide [Example 68] | 51% | – |
| N-Acetyl-L-Ser-L-Cha-D-Pro-D-Tyr-L-Arg amide [Example 22] | – | Thrombin inhibition (thrombin amidase activity) (thrombin [2]; peptide concentration of 1 μM): 31% |
| N-Acetyl-L-Ser-L-Cha-L-Cha-D-Pro-D-Tyr-L-Arg amide [Example 19] | – | Thrombin inhibition (thrombin amidase activity) (thrombin [2]; peptide concentration of 1 μM): 43% |
| N-Acetyl-L-Ser-L-Ser-L-Cha-D-Pro-D-Tyr-L-Arg amide [Example 13] | 49% | – |
| N-Acetyl-L-Ser-L-Ser-L-Cha-D-Pro-D-Tyr-L-Arg amide [Example 31] | 40% | – |
| N-Acetyl-L-Ser-L-Ser-L-Cha-D-Pro-D-Tyr-L-Arg amide [Example 46] | 40% | – |
| N-Acetyl-L-Ser-L-Ser-L-Cha-D-Pro-D-Tyr-L-Arg amide [Example 64] | 40% | – |
| N-Acetyl-L-Tea-D-Cha-L-Aze-D-Tyr-L-Har amide [Example 82] | – | Thrombin inhibition (thrombin amidase activity) (thrombin [2]; [4]): 74% |
| N-Acetyl-L-Trp-D-Cha-L-Aze-D-Tyr-L-Har amide [Example 75] | – | Thrombin inhibition (thrombin amidase activity) (thrombin [2]; [4]): 76% |
| N-Acetyl-L-Trp-L-Cha-D-Pro-D-Tyr-L-Arg amide [Example 33] | – | Thrombin inhibition (thrombin amidase activity) (thrombin [2]; peptide concentration of 1 μM): 63% |
| N-Acetyl-L-Tyr-D-Pro-L-Cha-D-Pro-D-Tyr-L-Arg amide [Example 39] | – | Thrombin inhibition (thrombin amidase activity) (thrombin [2]; peptide concentration of 1 μM): 44% |
| N-Acetyl-L-Tyr-L-Cit-L-Cha-D-Pro-D-Tyr-L-Arg amide [Example 15] | 51% | – |
| N-Acetyl-L-Tyr-L-Cit-L-Cha-D-Pro-D-Tyr-L-Arg amide [Example 30] | 55% | – |
| N-Acetyl-L-Tyr-L-Cit-L-Cha-D-Pro-D-Tyr-L-Arg amide [Example 45] | 55% | – |
| N-Acetyl-L-Tyr-L-Cit-L-Cha-D-Pro-D-Tyr-L-Arg amide [Example 63] | 55% | – |
